Test [1] concerns the target T1, Tyrosine-protein kinase JAK3 (Homo sapiens, UniProt P52333).
T1 sequence (P52333 whole entry): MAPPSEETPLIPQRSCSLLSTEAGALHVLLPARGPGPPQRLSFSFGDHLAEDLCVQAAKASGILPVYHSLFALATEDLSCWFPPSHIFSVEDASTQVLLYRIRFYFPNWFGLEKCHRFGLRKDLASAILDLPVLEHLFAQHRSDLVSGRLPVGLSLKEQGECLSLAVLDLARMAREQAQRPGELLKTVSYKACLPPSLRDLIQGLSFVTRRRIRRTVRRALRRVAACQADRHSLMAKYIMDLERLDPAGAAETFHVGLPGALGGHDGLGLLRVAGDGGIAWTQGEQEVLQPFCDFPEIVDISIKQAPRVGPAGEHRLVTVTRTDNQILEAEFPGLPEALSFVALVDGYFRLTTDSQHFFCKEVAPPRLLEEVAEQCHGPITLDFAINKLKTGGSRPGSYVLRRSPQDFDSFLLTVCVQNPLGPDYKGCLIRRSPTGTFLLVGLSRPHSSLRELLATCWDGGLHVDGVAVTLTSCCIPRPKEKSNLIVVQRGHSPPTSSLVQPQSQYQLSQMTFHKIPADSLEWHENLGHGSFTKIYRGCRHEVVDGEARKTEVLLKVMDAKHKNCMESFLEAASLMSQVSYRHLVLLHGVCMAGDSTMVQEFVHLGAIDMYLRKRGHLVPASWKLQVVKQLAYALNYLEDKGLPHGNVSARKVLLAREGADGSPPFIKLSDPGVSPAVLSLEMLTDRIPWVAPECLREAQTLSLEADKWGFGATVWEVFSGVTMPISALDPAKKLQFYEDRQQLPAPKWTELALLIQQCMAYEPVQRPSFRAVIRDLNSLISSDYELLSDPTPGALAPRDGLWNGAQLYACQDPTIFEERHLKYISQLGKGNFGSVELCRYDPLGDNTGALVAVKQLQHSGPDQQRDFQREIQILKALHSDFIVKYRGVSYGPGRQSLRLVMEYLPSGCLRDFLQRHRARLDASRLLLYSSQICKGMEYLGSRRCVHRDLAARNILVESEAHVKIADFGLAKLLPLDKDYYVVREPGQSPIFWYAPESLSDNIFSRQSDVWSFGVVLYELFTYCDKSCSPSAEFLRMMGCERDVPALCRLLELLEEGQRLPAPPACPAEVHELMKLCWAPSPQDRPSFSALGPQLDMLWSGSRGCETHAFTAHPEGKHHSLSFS
The test is described as follows: Inhibition of N-terminal GST-tagged human recombinant JAK3 (781 to 1124 residues) expressed in insect cells using 5FAM-GEEPLYWSFPAKKK-NH2 peptide as substrate incubated for 10 mins measured after 90 mins in presence of ATP by caliper mobility shift assay.

In test [2] the target is Tyrosine-protein kinase JAK1 (Homo sapiens, UniProt P23458). The test is described as follows: Inhibition of N-terminal GST-tagged human recombinant JAK1 (866 to 1154 residues) expressed in insect cells using FITC-C6-KKHTDDGYMPMSPGVA-NH peptide as substrate incubated for 10 mins measured after 90 mins in presence of ATP by caliper mobility shift assay.
Sequence of Tyrosine-protein kinase JAK1 (P23458 whole entry, the tested form may be a part): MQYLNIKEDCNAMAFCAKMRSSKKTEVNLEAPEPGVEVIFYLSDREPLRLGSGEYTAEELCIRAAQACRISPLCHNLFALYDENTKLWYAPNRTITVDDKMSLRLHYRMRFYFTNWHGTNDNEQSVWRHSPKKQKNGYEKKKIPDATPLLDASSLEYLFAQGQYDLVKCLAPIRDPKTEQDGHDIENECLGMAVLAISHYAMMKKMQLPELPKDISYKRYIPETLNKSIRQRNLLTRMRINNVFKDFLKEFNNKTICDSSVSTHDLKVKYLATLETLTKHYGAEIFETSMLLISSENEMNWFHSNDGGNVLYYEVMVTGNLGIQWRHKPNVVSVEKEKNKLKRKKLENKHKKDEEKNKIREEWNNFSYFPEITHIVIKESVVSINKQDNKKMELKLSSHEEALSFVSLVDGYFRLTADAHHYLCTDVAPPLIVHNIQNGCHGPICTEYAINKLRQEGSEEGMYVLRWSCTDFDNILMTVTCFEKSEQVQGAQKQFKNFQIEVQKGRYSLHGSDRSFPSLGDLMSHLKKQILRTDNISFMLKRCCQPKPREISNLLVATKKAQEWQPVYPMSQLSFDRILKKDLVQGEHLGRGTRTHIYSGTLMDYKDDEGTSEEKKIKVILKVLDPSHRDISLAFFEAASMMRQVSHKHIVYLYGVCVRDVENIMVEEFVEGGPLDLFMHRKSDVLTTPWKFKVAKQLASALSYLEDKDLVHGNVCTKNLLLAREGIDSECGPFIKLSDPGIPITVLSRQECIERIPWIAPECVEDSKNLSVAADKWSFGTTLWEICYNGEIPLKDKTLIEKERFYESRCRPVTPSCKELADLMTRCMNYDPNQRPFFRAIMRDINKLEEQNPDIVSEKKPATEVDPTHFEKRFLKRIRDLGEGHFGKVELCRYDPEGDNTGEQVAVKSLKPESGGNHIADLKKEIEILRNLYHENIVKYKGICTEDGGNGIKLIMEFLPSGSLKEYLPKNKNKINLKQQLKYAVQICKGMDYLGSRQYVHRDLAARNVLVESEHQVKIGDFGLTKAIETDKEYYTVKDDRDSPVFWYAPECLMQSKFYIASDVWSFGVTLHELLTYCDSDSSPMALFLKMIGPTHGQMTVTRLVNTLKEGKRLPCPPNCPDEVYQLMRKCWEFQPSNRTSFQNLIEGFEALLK

As to `Cc1cnc(Nc2cccc(S(C)(=O)=O)c2F)nc1-c1c[nH]c2c(NC(=O)[C@@H](C)N3CCN(C)CC3)cccc12` [US10961228, Example 2], the IC50 in test [1] is greater than 30 µM. With `CC[C@H](C(=O)Nc1cccc2c(-c3nc(Nc4cccc(S(C)(=O)=O)c4F)ncc3C)c[nH]c12)N1CCN(C)CC1` [US10961228, Example 14], the IC50 was greater than 30 µM in test [1] and less than 3 nM in test [2].

For `COC[C@H](C(=O)Nc1cccc2c(-c3nc(Nc4cccc(S(C)(=O)=O)c4F)ncc3C)c[nH]c12)N1CCN(C)CC1` [US10961228, Example 16], the values for the IC50 in test [1] and in test [2] were greater than 30 µM and less than 3 nM, respectively.

For `COC[C@H](C(=O)Nc1cccc2c(-c3nc(Nc4cccc(S(C)(=O)=O)c4F)ncc3F)c[nH]c12)N1CCN(C)CC1` [US10961228, Example 35], the figures for the half-maximal inhibitory concentration (IC50) in test [1] and in test [2] were greater than 30 µM and less than 3 nM, respectively.

`CC[C@H](C(=O)Nc1cccc2c(-c3nc(Nc4cccc(S(C)(=O)=O)c4F)ncc3F)c[nH]c12)N1CCN(C)CC1` [US10961228, Example 38]: the 50% inhibitory concentration (IC50) in test [1] is greater than 30 µM.
